Source: ChEMBL document CHEMBL1131841, “Hydroxyoxazolidines as alpha-aminoacetaldehye equivalents: novel inhibitors of calpain” (Bioorg Med Chem Lett, 1999)
Where a SMILES comes first, the peptide text is derived from it. [ ]: non-standard residue; d: D form. The star is where a group is joined. ξ: configuration not given here. NMeF = CN[C@@H](Cc1ccccc1)C(=O)O; Cbz = O=C(OCc1ccccc1)*; ξV = CC(C)C(N)C(=O)O

Legend:
[1] = biological target: T1, Calpain-1 catalytic subunit (Homo sapiens, UniProt P07384); test: Tested for inhibitory activity against calpain; NA means Not active
T1 sequence (P07384 whole entry): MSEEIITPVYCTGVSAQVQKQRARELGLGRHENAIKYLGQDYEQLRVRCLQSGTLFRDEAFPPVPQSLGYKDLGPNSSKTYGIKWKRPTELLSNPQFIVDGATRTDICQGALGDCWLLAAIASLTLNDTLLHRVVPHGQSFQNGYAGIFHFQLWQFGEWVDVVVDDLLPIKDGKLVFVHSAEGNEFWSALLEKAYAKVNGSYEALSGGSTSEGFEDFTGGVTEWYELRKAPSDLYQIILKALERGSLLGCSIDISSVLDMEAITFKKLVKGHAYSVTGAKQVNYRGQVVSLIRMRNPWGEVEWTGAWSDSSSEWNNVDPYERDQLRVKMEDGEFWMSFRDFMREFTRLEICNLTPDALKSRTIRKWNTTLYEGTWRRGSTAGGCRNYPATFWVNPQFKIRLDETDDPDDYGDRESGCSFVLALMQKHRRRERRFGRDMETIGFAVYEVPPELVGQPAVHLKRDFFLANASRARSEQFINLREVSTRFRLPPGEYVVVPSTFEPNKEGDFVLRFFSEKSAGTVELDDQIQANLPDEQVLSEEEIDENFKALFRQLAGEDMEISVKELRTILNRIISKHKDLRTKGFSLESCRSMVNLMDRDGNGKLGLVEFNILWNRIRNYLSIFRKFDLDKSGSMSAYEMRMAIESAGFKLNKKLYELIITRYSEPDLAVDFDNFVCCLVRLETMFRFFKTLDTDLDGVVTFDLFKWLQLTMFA

[2] = biological target: T1, Calpain-1 catalytic subunit; test: Tested for inhibitory activity against calpain.
[3] = biological target: T1, Calpain-1 catalytic subunit; test: Tested for inhibitory activity against calpain
Cathepsin B = Cathepsin B (Bos taurus, UniProt P07688); test: Tested for inhibitory activity against bovine cathepsin B.

| SMILES | Ki [2] [nM] | other results |
| --- | --- | --- |
| CC(C)C(NC(=O)OCc1ccccc1)C(=O)N1C(=O)C[C@H](O)[C@@H]1Cc1ccccc1 (stereo not given in full) |  | Ki [1]: Not Active |
| CC(C)[C@@H](NC(=O)OCc1ccccc1)C(=O)N1CCO[C@@H](O)[C@@H]1Cc1ccccc1 | 56000 |  |
| CC(C)C(NC(=O)OCc1ccccc1)C(=O)N1CC[C@@H](O)[C@@H]1Cc1ccccc1 (stereo not given in full) |  | Ki [1]: Not Active |
| CC(=O)O[C@@H]1OCN(C(=O)C(NC(=O)OCc2ccccc2)C(C)C)[C@H]1Cc1ccccc1 (stereo not given in full) |  | Ki [3]: 2000 nM |
| CC(C)C(NC(=O)OCc1ccccc1)C(=O)N1CO[C@@H](O)[C@@H]1Cc1ccccc1 (stereo not given in full) | 33 | Ki (Cathepsin B): 120 nM |
| CC(C)C(NC(=O)OCc1ccccc1)C(=O)N(CO)[C@H](C=O)Cc1ccccc1 (stereo not given in full) | 400 |  |
| O=C(N[C@H]1CCC[C@H]2O[C@@H](O)[C@H](Cc3ccccc3)N2C1=O)OCc1ccccc1.O=C(N[C@H]1CCC[C@H]2O[C@H](O)[C@@H](Cc3ccccc3)N2C1=O)OCc1ccccc1 | 1500 |  |

More lines, main results first:

| Ki [2] [nM] | SMILES | other results |
| --- | --- | --- |
| 3200 | O=C1c2ccccc2C(=O)N1[C@H]1CCC[C@H]2O[C@@H](O)[C@H](Cc3ccccc3)N2C1=O.O=C1c2ccccc2C(=O)N1[C@H]1CCC[C@H]2O[C@H](O)[C@@H](Cc3ccccc3)N2C1=O |  |
| 400 | CC(C)C(NC(=O)OCc1ccccc1)C(=O)N(C)[C@H](C=O)Cc1ccccc1 (stereo not given in full) (Cbz-[ξV]-[NMeF]-aldehyde) |  |
